pIC50: −log10 of the molar value.
These compounds were tested against T1, human CCR6 (Homo sapiens, UniProt P51684) (assay: FLIPR assay: inhibition of CCL20-induced calcium signal in HEK-293 cells expressing human CCR6). Conditions: engineered HEK-293 cells expressing human CCR6; agonist CCL20 10 nM; 30 min preincubation; Fluo-8-AM; mean values if determined several times.
T1 construct: expressed in transfected cells; host or cells: HEK-293
T1 sequence (P51684 1-374): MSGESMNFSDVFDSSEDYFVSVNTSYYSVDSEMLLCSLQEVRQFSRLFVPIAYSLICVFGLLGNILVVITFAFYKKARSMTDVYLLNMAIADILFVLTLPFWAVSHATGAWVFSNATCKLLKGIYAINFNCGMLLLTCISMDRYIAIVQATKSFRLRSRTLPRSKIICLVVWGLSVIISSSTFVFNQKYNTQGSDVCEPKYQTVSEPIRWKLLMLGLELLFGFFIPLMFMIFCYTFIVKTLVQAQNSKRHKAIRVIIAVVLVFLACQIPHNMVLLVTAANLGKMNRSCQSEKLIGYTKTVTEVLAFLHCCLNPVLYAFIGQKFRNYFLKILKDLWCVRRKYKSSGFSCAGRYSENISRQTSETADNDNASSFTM
Type: cell-based
Method: FLIPR assay: The bioactivity of compounds is tested in a fluorometric imaging plate reader (FLIPR: Molecular Devices) using engineered HEK-293 cells expressing the human CCR6 (GenBank: AY242126). Frozen cells are plated on Poly-L-Lysine precoated 384-well plates 2 days prior to bioassay in DMEM medium supplemented with 10% FCS and 1% Penicillin-Streptomycin. At the day of bioassay, cell supernatant is discarded and cells are dye loaded for 30 minutes at room temperature in the dark with Fluo-8-AM (Focus Biomolecules) in Hanks Balanced Salt Solution (Gibco), buffered with 20 mM Hepes at pH 6.75 and supplemented with 0.05% BSA. This buffer, but lacking the dye, is also used for washing and compound dilution steps (assay buffer). Cells are washed free of excess dye with a wash-station (Biotek), leaving 40 microliter of assay buffer at the end. Cells were incubated for 15 minutes at room temperature in the dark, before adding compounds. Stock solutions of test compounds are made up at a concentration of 10 mM in DMSO, and serially diluted first in DMSO and then transferred in assay buffer to concentrations required for inhibition dose response curves. After a 45 minute incubation period in assay buffer at room temperature, 10 microliters of each compound dilution are transferred from a compound plate to the plate containing the recombinant cells in the FLIPR instrument according to the manufacturer's instructions. After cells and compounds were preincubated for 30 minutes at room temperature in the dark, 10 microliter agonist CCL20 (Peprotech) at a final concentration of 10 nM is added, again using the FLIPR instrument. Changes in fluorescence are monitored before and after addition of the test compounds and agonist. Emission peak values above base level after CCL20 addition are exported after base line subtraction. The calculated IC50 values may fluctuate depending on the daily assay performance. Fluctuations of this kind are known to those skilled in the art. In the case where IC50 values have been determined several times for the same compound, mean values are given.

Row | Structure (SMILES) | pIC50
1 | CC(C)c1ccc([C@](O)(c2cncc(-c3nc(C4CCOCC4)n(CC(C)(F)F)n3)c2)C2(C)CN(C)C2)cc1 [Example 22, (R)-{5-[1-(2,2-Difluoro-propyl)-5-(tetrahydro-pyran-4-yl)-1H-[1,2,4]triazol-3-yl]-pyridin-3-yl}-(1,3-dimethyl-azetidin-3-yl)-(4-isopropyl-phenyl)-methanol] | 7.09
2 | CC(C)c1ccc([C@](O)(c2cncc(-c3nc(C4CCOCC4)n(C4CCC4)n3)c2)C2(C)CN(C)C2)cc1 [Example 23, (R)-{5-[1-Cyclobutyl-5-(tetrahydro-pyran-4-yl)-1H-[1,2,4]triazol-3-yl]-pyridin-3-yl}-(1,3-dimethyl-azetidin-3-yl)-(4-isopropyl-phenyl)-methanol] | 7.24
3 | CC(C)c1ccc([C@](O)(c2cncc(-c3nc(-c4cccnc4)n(C4CC4)n3)c2)C2(C)CN(C)C2)cc1 [Example 24, (R)-[5-(1-Cyclopropyl-5-pyridin-3-yl-1H-[1,2,4]triazol-3-yl)-pyridin-3-yl]-(1,3-dimethyl-azetidin-3-yl)-(4-isopropyl-phenyl)-methanol] | 7.30
4 | CN1CC(C)([C@](O)(c2ccc(C3CC3)cc2)c2cncc(-c3nc(C4CCOCC4)n(C4CC4)n3)c2)C1 [Example 25, (R)-(4-Cyclopropyl-phenyl)-{5-[1-cyclopropyl-5-(tetrahydro-pyran-4-yl)-1H-[1,2,4]triazol-3-yl]-pyridin-3-yl}-(1,3-dimethyl-azetidin-3-yl)-methanol] | 6.79
5 | CC(C)c1ccc([C@](O)(c2cncc(-c3nc(C(C)(C)O)n(C4CC4)n3)c2)C2(C)CN(C)C2)cc1 [Example 26, 2-(2-Cyclopropyl-5-{5-[(R)-(1,3-dimethyl-azetidin-3-yl)-hydroxy-(4-isopropyl-phenyl)-methyl]-pyridin-3-yl}-2H-[1,2,4]triazol-3-yl)-propan-2-ol] | 7.33
6 | CC(C)c1ccc([C@](O)(c2cncc(-c3nc(C(C)(C)O)n(C(C)C)n3)c2)C2(C)CN(C)C2)cc1 [Example 27, 2-(5-{5-[(R)-(1,3-Dimethyl-azetidin-3-yl)-hydroxy-(4-isopropyl-phenyl)-methyl]-pyridin-3-yl}-2-isopropyl-2H-[1,2,4]triazol-3-yl)-propan-2-ol] | 7.23
7 | CC(C)c1ccc([C@](O)(c2cncc(-c3nc(C45CC(CO)(C4)C5)n(C4CC4)n3)c2)C2(C)CN(C)C2)cc1 [Example 28, (R)-{5-[1-Cyclopropyl-5-(3-hydroxymethyl-bicyclo[1.1.1]pent-1-yl)-1H-[1,2,4]triazol-3-yl]-pyridin-3-yl}-(1,3-dimethyl-azetidin-3-yl)-(4-isopropyl-phenyl)-methanol] | 7.21
8 | CC(C)c1ccc([C@](O)(c2cncc(-c3nc(C45CC(CO)(C4)C5)n(C(C)C)n3)c2)C2(C)CN(C)C2)cc1 [Example 29, (R)-(1,3-Dimethyl-azetidin-3-yl)-{5-[5-(3-hydroxymethyl-bicyclo[1.1.1]pent-1-yl)-1-isopropyl-1H-[1,2,4]triazol-3-yl]-pyridin-3-yl}-(4-isopropyl-phenyl)-methanol] | 7.10
9 | CC(C)c1ccc([C@](O)(c2cncc(-c3nc(C4(O)CCOCC4)n(C4CC4)n3)c2)C2(C)CN(C)C2)cc1 [Example 30, 4-(2-Cyclopropyl-5-{5-[(R)-(1,3-dimethyl-azetidin-3-yl)-hydroxy-(4-isopropyl-phenyl)-methyl]-pyridin-3-yl}-2H-[1,2,4]triazol-3-yl)-tetrahydro-pyran-4-ol] | 7.01
10 | CC(C)c1ccc([C@](O)(c2cncc(-c3nc(C4(O)CCOCC4)n(C(C)C)n3)c2)C2(C)CN(C)C2)cc1 [Example 31, 4-(5-{5-[(R)-(1,3-Dimethyl-azetidin-3-yl)-hydroxy-(4-isopropyl-phenyl)-methyl]-pyridin-3-yl}-2-isopropyl-2H-[1,2,4]triazol-3-yl)-tetrahydro-pyran-4-ol] | 7.06
11 | CC(=O)N1CCC(c2nc(-c3cncc([C@@](O)(c4ccc(C(C)C)cc4)C4(C)CN(C)C4)c3)nn2C2CC2)CC1 [Example 32, 1-[4-(2-Cyclopropyl-5-{5-[(R)-(1,3-dimethyl-azetidin-3-yl)-hydroxy-(4-isopropyl-phenyl)-methyl]-pyridin-3-yl}-2H-[1,2,4]triazol-3-yl)-piperidin-1-yl]-ethanone] | 6.74
12 | CC(=O)N1CCC(c2nc(-c3cncc([C@@](O)(c4ccc(C(C)C)cc4)C4(C)CN(C)C4)c3)nn2C(C)C)CC1 [Example 33, 1-[4-(5-{5-[(R)-(1,3-Dimethyl-azetidin-3-yl)-hydroxy-(4-isopropyl-phenyl)-methyl]-pyridin-3-yl}-2-isopropyl-2H-[1,2,4]triazol-3-yl)-piperidin-1-yl]-ethanone] | 6.74
13 | CC(C)c1ccc([C@](O)(c2cncc(-c3nc(C4CCOCC4)n(C4CC4)n3)c2)C2(C)CN(C(C)C)C2)cc1 [Example 34, (R)-{5-[1-Cyclopropyl-5-(tetrahydro-pyran-4-yl)-1H-[1,2,4]triazol-3-yl]-pyridin-3-yl}-(1-isopropyl-3-methyl-azetidin-3-yl)-(4-isopropyl-phenyl)-methanol] | 7.20
14 | CC(C)c1ccc([C@](O)(c2cncc(-c3nc(C4CCOCC4)n(C4CC4)n3)c2)C2(C)CN(CC(F)F)C2)cc1 [Example 35, (R)-{5-[1-Cyclopropyl-5-(tetrahydro-pyran-4-yl)-1H-[1,2,4]triazol-3-yl]-pyridin-3-yl}-[1-(2,2-difluoro-ethyl)-3-methyl-azetidin-3-yl]-(4-isopropyl-phenyl)-methanol] | 7.14
15 | CC(C)c1ccc([C@](O)(c2cncc(-c3nc(C4CCOCC4)n(C4CC4)n3)c2)C2(C)CN(CCO)C2)cc1 [Example 36, 2-{3-[(R)-{5-[1-Cyclopropyl-5-(tetrahydro-pyran-4-yl)-1H-[1,2,4]triazol-3-yl]-pyridin-3-yl}-hydroxy-(4-isopropyl-phenyl)-methyl]-3-methyl-azetidin-1-yl}-ethanol] | 6.94
16 | CC(C)c1ccc([C@](O)(c2cncc(-c3nc(C(C)(C)O)n(C4CC4)n3)c2)C2(C)CNC2)cc1 [Example 37, 2-(2-Cyclopropyl-5-{5-[(R)-hydroxy-(4-isopropyl-phenyl)-(3-methyl-azetidin-3-yl)-methyl]-pyridin-3-yl}-2H-[1,2,4]triazol-3-yl)-propan-2-ol] | 6.98
17 | CC(C)c1ccc([C@](O)(c2cncc(-c3nc(C4CCOCC4)n(C4CC4)n3)c2)C2(C)CN(C)C2)cc1F [Example 38, (R)-{5-[1-Cyclopropyl-5-(tetrahydro-pyran-4-yl)-1H-[1,2,4]triazol-3-yl]-pyridin-3-yl}-(1,3-dimethyl-azetidin-3-yl)-(3-fluoro-4-isopropyl-phenyl)-methanol] | 7.11
18 | CC(C)c1ccc([C@](O)(c2cnc(F)c(-c3nc([C@H]4CC[C@H](O)CC4)n(C4CC4)n3)c2)C2(C)CN(C)C2)cc1 [Example 39, 4-(2-Cyclopropyl-5-{5-[(R)-(1,3-dimethyl-azetidin-3-yl)-hydroxy-(4-isopropyl-phenyl)-methyl]-2-fluoro-pyridin-3-yl}-2H-[1,2,4]triazol-3-yl)-trans-cyclohexanol] | 7.12
19 | Cc1ncc([C@@](O)(c2ccc(C(C)C)cc2)C2(C)CN(C)C2)cc1-c1nc([C@H]2CC[C@H](O)CC2)n(C2CC2)n1 [Example 40, 4-(2-Cyclopropyl-5-{5-[(R)-(1,3-dimethyl-azetidin-3-yl)-hydroxy-(4-isopropyl-phenyl)-methyl]-2-methyl-pyridin-3-yl}-2H-[1,2,4]triazol-3-yl)-trans-cyclohexanol] | 6.69
20 | CCCc1nc(-c2cncc([C@@](O)(c3ccc(C(C)C)cc3)C3(C)CN(C)C3)c2)nn1C(C)C [Example 41, (R)-(1,3-Dimethyl-azetidin-3-yl)-(4-isopropyl-phenyl)-[5-(1-isopropyl-5-propyl-1H-[1,2,4]triazol-3-yl)-pyridin-3-yl]-methanol] | 7.34
21 | CC(C)c1ccc([C@](O)(c2cncc(-c3nc(C4CCN(C)C(=O)C4)n(C(C)C)n3)c2)C2(C)CN(C)C2)cc1 (stereo partly drawn) [Example 42, 4-(5-{5-[(R)-(1,3-Dimethyl-azetidin-3-yl)-hydroxy-(4-isopropyl-phenyl)-methyl]-pyridin-3-yl}-2-isopropyl-2H-[1,2,4]triazol-3-yl)-1-methyl-piperidin-2-one] | 6.70
